Marks after values point to notes of the source that are not given here.

One data set has as its system AR. In words: AR antagonistic activity: AR / PSA ARE1 luciferase reporter gene assay in transfected LNCaP cells stimulated with 1 nM DHT. The data set is classed as cell-based. The procedure: LNCaP cells were plated in a 6-well plate (Corning, 3516) at 8 × 10^5 cells/well.
Transfection reagents Lipo 3000 and P3000 (Lipofectamine™ 3000) and AR and PSA ARE1 reporter gene plasmids (Bio (Anhui) Co., Ltd.) (a total of 2.5 µg of plasmids, i.e., 1.25 µg of each plasmid, were added to each well) were left to stand and incubated at room temperature for 10 min, and then 250 µL of the above transfection reagents were added dropwise to each well containing cells.
The cells were washed with PBS, and the medium was replaced with a phenol red-free RPMI-1640 medium containing 5% carbon adsorption serum. The cells were re-plated onto a 96-well plate (Corning, 3603) according to the number of cells plated (2 × 10^4 cells/well).
After cell plating, the test compound (or DMSO or positive control) was added. After at least 30 min of incubation (incubator, 37 °C, 5% CO2), DHT (dihydrotestosterone) was added to the culture system at a final concentration of 1 nM. The culture system was then incubated in a carbon dioxide incubator. The final volume of the system in the plate was 100 µL.
Test compound: 10 mM stock solution, with a final concentration of 3.3 µM or 6.7 µM. Negative control: 0.1% DMSO. Positive control: 30 µM enzalutamide.
After the test compound (or DMSO or positive control) and DHT were co-incubated for 6 or 24 h, the luciferase signal was detected using the Vazyme Bright-Lite substrate. The medium was added at 70 µL/well, and the plate was shaken for 2 min, followed by reading of the luciferase signal.
Assay robustness was confirmed using the DMSO and low concentration control data: Ave_H = Ave (DMSO) [formula] Ave_L = Ave (30000nMenzalutamide) [formula] Inhibition rate (%) = (Ave_H−Sample)/(Ave_H−Ave_L) × 100% [formula] • Ave_H: the measurement of the negative control (0.1% DMSO); • Ave_L: the measurement of the positive control (30 µM enzalutamide); • Sample: the measurement of the test compound;

For data set [1] the following is noted: 5 µM.
Description: (§1) 1 mM stock solutions of the test compounds were prepared in DMSO, and a 1 mM stock solution of the reference compound propantheline was prepared in acetonitrile.
(§2) 4 µL of test compound stock solution (or reference compound stock solution) was added to 796 µL of pre-incubated whole blood (CD-1 mouse whole blood or human whole blood) at a final concentration of 5 µM. The final concentration of the solvent was 0.5%. At different time points (including 5 min, 15 min, 30 min, 60 min, and 120 min), a 50 µL aliquot of the whole blood containing the sample was added to a new tube and incubated in a 37 °C water bath with shaking at 60 rpm. The treatment was performed in duplicate. At designated time points, 300 µL of room-temperature quenching solution (a solution of acetonitrile containing internal standards (100 nM alprazolam, 500 nM labetalol, and 2 µM ketoprofen)) was added to the whole blood sample containing the sample to terminate the reaction. 50 µL of whole blood containing the sample was added to a new tube containing 300 µL of room-temperature quenching solution to prepare a sample at 0 min. All samples were vortexed for 5 min. The samples in the plate were centrifuged at 3220 g for 30 min at 4 °C to precipitate the proteins. 100 µL of the supernatant was transferred to a new 96-well plate containing 100 µL of water for LC-MS/MS analysis.
(§3) The peak area ratio was determined by using an extracted ion chromatogram. The proportion of remaining compound at each time point was calculated according to the following formula: Remaining proportion t min (%) = peak area ratio t min / peak area ratio 0 min × 100% [formula] • Peak area ratio t min: peak area ratio of reference compound to test compound at t min; • Peak area ratio 0 min: peak area ratio of reference compound to test compound at time zero.
(§4) The slope value was determined by linear regression on the curve of the natural logarithm of the remaining proportion of the test compound versus the incubation time.
(§5) Determination of in vitro half-life (in vitro t1/2) from the slope value: in vitro t1/2 = 0.693/k [formula] in the formula, k is the rate constant (k = -slope value)
The conditions of data set [2]: 5 µM. This is another data set of the same source.
Description: as §1, §2, §3, §4, §5
For data set [3] the following is noted: human, microsomes, 1 µM, pH 7.4.
Description: (§6) The metabolic stability of compounds disclosed herein in liver microsomes was determined using the following method.
(§7) Liver microsome source: Human liver microsome (Corning, 452117) • 2. Na2HPO4 (Tianjin Guangfu Fine Chemical Research Institute, 20180130) • 3. KH2PO4 (Tianjin Guangfu Fine Chemical Research Institute, 20180920) • 4. MgCl2 (Tianjin Guangfu Fine Chemical Research Institute, 20191216) • 5. NADPH (Solarbio, 1216C022) • 6. Positive control compound: verapamil (Sigma, MKBV4993V) • 7. AB Sciex Triple Quad 4000 liquid chromatography-mass spectrometry system
(§8) Preparation of 100 mM phosphate-buffered saline (PBS): 7.098 g Na2HPO4 was dissolved in 500 mL of purified water by sonication to give solution A. 3.400 g of KH2PO4 was dissolved in 250 mL of purified water by sonication to give solution B. Solution A was placed on a stirrer, and solution B was added slowly until the pH reached 7.4, so as to give a 100 mM PBS buffer. […] Preparation of reaction system The reaction system was prepared according to the table below.
(§9) The reaction system was pre-incubated in a 37 °C water bath for 10 min. 40 µL of 10 mM NADPH solution (in 100 mM phosphate-buffered saline) was added to the reaction system, with the final NADPH concentration being 1 mM. A negative control was prepared by replacing the NADPH solution with 40 µL of phosphate-buffered saline. The negative control was used to exclude the effect of the chemical stability of the compound itself. […] The reaction was initiated by adding 4 µL of 100 µM compound disclosed herein or positive control compound verapamil to the reaction system at a final concentration of 1 µM. […] After 0.5 min, 15 min, 30 min, 45 min, and 60 min of mixing well by using a vortex oscillator, 50 µ L of the incubated sample was taken out, and glacial acetonitrile containing an internal standard of 4 folds was added to terminate the reaction. The sample was centrifuged at 3,220 g for 45 min. 90 µL of the supernatant was transferred to a feeding plate after the centrifugation was completed, and 90 µL ultrapure water was added. The mixture was well mixed for LC-MS/MS analysis.
(§10) All data were calculated by using Microsoft Excel software. The peak areas were determined by using an extracted ion chromatogram. The in vitro half-life (T1/2) of the test compound was determined by linear fitting of the natural logarithm of the elimination proportion of the test compound over time. In vitro half-life (T1/2) was calculated by the slope k: in vitro T1/2 = 0.693/k [formula]
(§11) The in vitro intrinsic clearance (in vitro CLint, unit: µL/min/mg protein) was calculated using the following formula: in vitro CLint = k × volume of incubation solution/enzyme protein content; [formula]
Data set [4] can be described thus: in vitro. The conditions noted are these: human, microsomes; for microsomal CLint at 1 µM: pH 7.4, In vitro Clint; for half-life at 1 µM: pH 7.4, In vitro T1/2.
Description: as §6, §7, §8, §9, §10, §11
Data set [5] in a line: in vitro. The following applies: mouse, blood, Half-life T 1/2 in CD-1 mouse whole blood.
Description: as §1, §2, §3, §4, §5
Data set [6] can be described thus: in vitro. The conditions noted are these: human, blood, Half-life T 1/2 in human whole blood.
Description: as §1, §2, §3, §4, §5
[7] abbreviates: incubation time: 24 h, test concentration: 3.3 µM, LNCaP cells, 1 nM DHT, normalised to 0.1% DMSO and 30 µM enzalutamide.

Turning to `CCOC(=O)CCCCC(C)(O)C(=O)Nc1cnc(C#N)c(C(F)(F)F)c1` (centres unmarked) [Compound 027, Ethyl 7-((6-cyano-5-(trifluoromethyl)pyridin-3-yl)amino)-6-hydroxy-6-methyl-7-oxoheptanoate], the “AR antagonism (inhibition rate, %)” value with AR (setting [7]) is 76.55^a %.
With `CCOC(=O)CCC[C@](C)(O)C(=O)Nc1cnc(C#N)c(SC)c1` [Compound 014, ethyl (6S)/(6R)-6-((6-cyano-5-(methylthio)pyridin-3-yl)amino)-5-hydroxy-5-methyl-6-oxohexanoate], the “AR antagonism (inhibition rate, %)” value with AR (incubation time: 24 h, test concentration: 6.7 µM, LNCaP cells, 1 nM DHT, normalised to 0.1% DMSO and 30 µM enzalutamide) is 64.39^c %. Further, the “Half-life T 1/2 in CD-1 mouse whole blood” value in data set [1] amounted to 1.13 min. The “Half-life T 1/2 in human whole blood” value in data set [2] amounted to 89.49 min.
Take `CCOC(=O)CCCC(C)(O)C(=O)Nc1ccc(C#N)c(SC)c1` (centres unmarked) [Compound 029, Ethyl 6-(4-cyano-3-methylthio-anilino)-5-hydroxy-5-methyl-6-oxohexanoate]: the “AR antagonism (inhibition rate, %)” value with AR (setting [7]) is 98.41^a %.
On the same count and under the same terms, the result for `CCOC(=O)CCCC(C)(O)C(=O)Nc1ccc(C#N)c(OC)c1` (centres unmarked) [Compound 030, Ethyl 6-(4-cyano-3-methoxy-anilino)-5-hydroxy-5-methyl-6-oxohexanoate] reads 98.45^a %.
Take `COC(=O)CCCC(C)(O)C(=O)Nc1cnc(C#N)c(SC)c1` (single isomer, unassigned) [Compound 016]: in data set [3], the “In vitro Clint” value was found to be 1216.15 µL/min/mg protein and the “In vitro T1/2” value is reported as 1.14 min. The “Half-life T 1/2 in CD-1 mouse whole blood” value in data set [1] came out at 9.44 min. Besides, the “Half-life T 1/2 in human whole blood” value in data set [2] is given as 70.19 min.
Turning to `CSc1cc(NC(=O)C(O)CCCC(=O)OC(C)C)cnc1C#N` (centres unmarked) [Compound 032, Isopropyl 6-((6-cyano-5-(methylthio)pyridin-3-yl)amino)-5-hydroxy-6-oxohexanoate], the “AR antagonism (inhibition rate, %)” value with AR (setting [7]) is reported as 92.25^a %.
Same read-out and setting: the same measure for `CCOC(=O)CCCC(C)(O)C(=O)Nc1cnc(C#N)c([Se]C)c1` (centres unmarked) [Compound 024, Ethyl 6-[(6-cyano-5-methylselanylpyridin-3-yl)amino]-5-hydroxy-5-methyl-6-oxohexanoate]: 88.18^a %.
The same measure, in the same setting: the same measure for `CC(O)(CCO)C(=O)Nc1cnc(C#N)c(C(F)(F)F)c1` (centres unmarked) [Compound 002, N-[6-cyano-5-(trifluoromethyl)pyridin-3-yl]-2,4-dihydroxy-2-methylbutanamide]: 59.75^a %.
With `COC(=O)CCCC(C)(O)C(=O)Nc1cnc(C#N)c(C(F)(F)F)c1` (single isomer, unassigned) [Compound 008], in the data set on AR (6 h, 6.7 µM), the “AR antagonism (inhibition rate, %)” value is given as 92.41^b %. In data set [3], the “In vitro Clint” value is 131.2 µL/min/mg protein and the “In vitro T1/2” value is 10.6 min. Besides, in data set [1], the “Half-life T 1/2 in CD-1 mouse whole blood” value came out at 3.94 min. Also, in data set [2], the “Half-life T 1/2 in human whole blood” value is reported as 141.44 min.
With `CCOC(=O)CCCC(C)(O)C(=O)Nc1cnc(C#N)c(C(F)(F)F)c1` (single isomer, unassigned) [Compound 006], in the data set with AR (24 h, 3.3 µM), the “AR antagonism (inhibition rate, %)” value is 88.13^a %. The “AR antagonism (inhibition rate, %)” value in the data set with AR (24 h, 6.7 µM) was 90.51^c %. For the same compound, in data set [3], the “In vitro Clint” value was found to be 199.5 µL/min/mg protein and the “In vitro T1/2” value is 6.9 min. Also, the “Half-life T 1/2 in CD-1 mouse whole blood” value in data set [1] is 3.61 min. Also, the “Half-life T 1/2 in human whole blood” value in data set [2] is recorded as 183.42 min.
With `CSc1cc(NC(=O)C(C)(O)CCCC(=O)OC(C)C)cnc1C#N` (single isomer, unassigned) [Compound 017], in “in vitro [4]”, the intrinsic metabolic clearance (microsomal CLint) at 1 µM was found to be 243 µL/min/mg and the half-life at 1 µM was found to be 5.7 min. In addition, the half-life at 5 µM in the data set “in vitro [5]” worked out at 4.64 min. In the data set “in vitro [6]”, this compound returned a half-life at 5 µM of 206 min.
`CSc1cc(NC(=O)C(C)(O)CCCC(=O)OC(C)C)cnc1C#N` (single isomer, unassigned) [Compound 018]: the “AR antagonism (inhibition rate, %)” value with AR (24 h, 6.7 µM) is on record as 63.12^c %. In data set [3], the “In vitro Clint” value is on record as 247.8 µL/min/mg protein and the “In vitro T1/2” value was found to be 5.6 min. Further, in data set [1], the “Half-life T 1/2 in CD-1 mouse whole blood” value is 4.93 min. Besides, the “Half-life T 1/2 in human whole blood” value in data set [2] turned out to be 194.81 min.
With `CC(O)(CCCCO)C(=O)Nc1cnc(C#N)c(C(F)(F)F)c1` (centres unmarked) [Compound 001, N-[6-cyano-5-(trifluoromethyl)pyridin-3-yl]-2,6-dihydroxy-2-methyl-hexanamide], the “AR antagonism (inhibition rate, %)” value in the data set with AR (setting [7]) is reported as 87.89^a %.
Take `CCOC(=O)CCCC(C)(O)C(=O)Nc1cnc(C#N)c(SC)c1` (single isomer, unassigned) [Compound 013]: in the data set “in vitro [4]”, the intrinsic metabolic clearance (microsomal CLint) at 1 µM worked out at 487 µL/min/mg and the half-life at 1 µM amounted to 2.8 min. Moreover, the half-life at 5 µM in the data set “in vitro [5]” is under 0.5 min. In addition, in “in vitro [6]”, the half-life at 5 µM came to 118 min.
`COC(=O)CCCC(C)(O)C(=O)Nc1cnc(C#N)c(C(F)(F)F)c1` (single isomer, unassigned) [Compound 007]: the “AR antagonism (inhibition rate, %)” value in the data set on AR (24 h, 6.7 µM) is 100.00^c %. In the data set “in vitro [4]”, this compound gave a microsomal CLint at 1 µM of 226 µL/min/mg and a half-life at 1 µM of 6.1 min. This compound registered a half-life at 5 µM in the data set “in vitro [5]” of 2.7 min. In the data set “in vitro [6]”, this compound came in with a half-life at 5 µM of 82.7 min.
As to `COC(=O)CCCC(C)(O)C(=O)Nc1cnc(C#N)c(SC)c1` (single isomer, unassigned) [Compound 015], the “AR antagonism (inhibition rate, %)” value in the data set with AR (24 h, 3.3 µM) is listed as 92.46^a %. In data set [3], the “In vitro Clint” value came out at 270.78 µL/min/mg protein and the “In vitro T1/2” value is reported as 5.12 min. The “Half-life T 1/2 in CD-1 mouse whole blood” value in data set [1] was 4.34 min. Also, in data set [2], the “Half-life T 1/2 in human whole blood” value came to 164.02 min.
In the case of `CSc1cc(NC(=O)C(C)(O)CCCC(=O)OC(C)(C)C)cnc1C#N` (centres unmarked) [Compound 019, tert-butyl 6-((6-cyano-5-(methylthio)pyridin-3-yl)amino)-5-hydroxy-5-methyl-6-oxohexanoate], the “AR antagonism (inhibition rate, %)” value in the data set on AR (incubation time: 6 h, test concentration: 6.7 µM, LNCaP cells, 1 nM DHT, normalised to 0.1% DMSO and 30 µM enzalutamide) is 57.98^b %.
With `CC(C)OC(=O)CCCC(C)(O)C(=O)Nc1cnc(C#N)c(C(F)(F)F)c1` (single isomer, unassigned) [Compound 009], in the data set with AR (24 h, 6.7 µM), the “AR antagonism (inhibition rate, %)” value is 97.66^c %. In the data set “in vitro [4]”, this compound yielded an intrinsic metabolic clearance (microsomal CLint) at 1 µM of 234 µL/min/mg and a half-life at 1 µM of 5.9 min. In “in vitro [5]”, this compound showed a half-life at 5 µM of 10 min. In the data set “in vitro [6]”, the half-life at 5 µM came to 210 min.
`CCOC(=O)CCCC(C)(O)C(=O)Nc1cnc(C#N)c(C(F)(F)F)c1` (single isomer, unassigned) [Compound 005]: the “AR antagonism (inhibition rate, %)” value with AR (6 h, 6.7 µM) is given as 92.96^b %. Moreover, in data set [3], the “In vitro Clint” value was determined as 670.7 µL/min/mg protein and the “In vitro T1/2” value was 2.1 min. Moreover, the half-life at 5 µM in the data set “in vitro [5]” was 3.54 min. The compound further had a half-life at 5 µM in “in vitro [6]” of 119 min.

The values above are taken from patent EP4786452A1, “AMIDE COMPOUNDS” (China Pharmaceutical University, priority 2023, dated 2025).
